The record followed here is US4217271A, “Basic azo dyestuffs containing a n-picolinium alkylene amino phenyl group” (Imperial Chemical Industries Limited, priority 1977, dated 1980).

A short description of the data set: Solubility in water (grams/100 ml) at 30, 60 and 90° C. The note with it: for Solubility in water: chloride anion. It is filed as physicochemical.

Consider `CCN(CC[n+]1ccc(C)cc1)c1ccc(N=Nc2ccc([N+](=O)[O-])cc2Cl)cc1` [Example 1, 4-nitro-2-chloroaniline N-2-(N'-ethylanilino)-ethyl-4-methylpyridinium chloride], for which the Solubility in water is, setting by setting: (30° C.) 2.5 grams/100 ml; (60° C.) 62 grams/100 ml; (90° C.) greater than 100 grams/100 ml. For the same molecule, the “aqueous solubility compared with Basic Red 18:1” value (both dyestuffs having a chloride anion) was “superior aqueous solubility”.
